Laboratory results taken from BindingDB's records for doi:10.1021/jm00045a012 (Dupont Pharmaceuticals, 1994).

Target: Stromelysin-1 (MMP-3) (Homo sapiens) (UniProt P08254)
Assay: Tested for the inhibition of prostromelysin activation with no preincubation period

Chain of Stromelysin-1 (MMP-3) (Homo sapiens) (P08254 whole entry, looked up): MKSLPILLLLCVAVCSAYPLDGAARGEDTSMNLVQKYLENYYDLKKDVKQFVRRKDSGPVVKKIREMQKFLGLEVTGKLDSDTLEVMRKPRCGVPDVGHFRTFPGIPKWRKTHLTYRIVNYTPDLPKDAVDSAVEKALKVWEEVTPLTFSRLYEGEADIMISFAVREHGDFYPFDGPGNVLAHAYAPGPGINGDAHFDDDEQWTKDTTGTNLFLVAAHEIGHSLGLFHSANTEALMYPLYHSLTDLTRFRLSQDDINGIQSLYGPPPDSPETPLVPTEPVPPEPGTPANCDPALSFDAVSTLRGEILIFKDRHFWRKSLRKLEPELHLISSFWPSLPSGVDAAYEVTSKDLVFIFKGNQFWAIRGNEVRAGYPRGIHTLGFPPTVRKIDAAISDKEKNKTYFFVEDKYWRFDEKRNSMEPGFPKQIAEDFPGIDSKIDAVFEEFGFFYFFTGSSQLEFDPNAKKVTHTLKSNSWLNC

Row | IC50 [µM] | Compound
1 | 62 | COc1ccc(-n2sc3ncccc3c2=O)c(OC)c1 [2-(2,4-Dimethoxy-phenyl)-isothiazolo[5,4-b]pyridin-3-one]
2 | 53 | COc1ccc(OC)c(-n2sc3ncccc3c2=O)c1 [2-(2,5-Dimethoxy-phenyl)-isothiazolo[5,4-b]pyridin-3-one]
